Experimental data as given in patent US8629159B2, “Thiazolidinedione analogues” (Metabolic Solutions Development Company, LLC, priority 2006, dated 2014).
Marks after values point to notes of the source that are not given here.

What was measured:
[1] = test system: Male salt-sensitive Dahl rats; assay: Fasting free fatty acids (FFA) and adiponectin in treated Dahl rats; assay type: in vivo, rat; conditions: 3 weeks treatment; 40 mg/kg compound 1, 20 mg/kg rosiglitazone
Experimental: Doses of these compounds were chosen to produce the same metabolic effects in terms of reduction of triglycerides and elevation of adiponectin (Table E). Direct blood pressure (systolic and diastolic) and heart rate was also measured by telemetry (Tables F—H and FIG. 4).

[2] = test system: Male salt-sensitive Dahl rats; assay: Blood pressure (systolic and diastolic) and heart rate by telemetry in hypertensive Dahl rats; assay type: in vivo, rat; conditions: for Diastolic blood pressure measured by telemetry, Mean / Heart rate measured by telemetry, Mean / Systolic blood pressure measured by telemetry, Mean: 24 hour average
Experimental: Direct blood pressure (systolic and diastolic) and heart rate was also measured by telemetry (Tables F—H and FIG. 4). Data in Tables F—H and depicted in FIGS. 4A-4C are 24 hour averages for the last 4 days before the start of the daily oral gavage of treatments (−4, −3, −2, −1) and for the days 1-17 during the treatments shown.

[3] = test system: Male Dahl salt-sensitive rats; assay: Antihypertensive action in hypertensive Dahl salt-sensitive rats (high salt diet), mean blood pressure by direct femoral arterial cannulation; assay type: in vivo, rat
Experimental: Male Dahl salt-sensitive rats were made hypertensive by feeding of a high salt diet (4% salt) for 3 weeks and then treated daily with the indicated dose of hydrochlorothiazide (HCTZ), compound 1, or the combination of HCTZ and compound 1, as compared to the vehicle alone (1% carboxymethylcellulose/0.01% Tween 20) by oral gavage for 8 days. Mean blood pressure was measured by direct femoral arterial cannulation under fed conditions on day 7 and after a 6 hour fast on day 8.
Referring to FIG. 2 and Table C above, the antihypertensive action of compound 1 is additive with hydrocholothiazide (HCTZ). Data are mean and (SEM) mean blood pressure taken by direct cannulation. N=5; * p<0.05 less than blood pressure in HCTZ-treated rats.

[4] = test system: male Sprague-Dawley rats; assay: Prevention of Medrol-induced hypertension, mean blood pressure by direct femoral arterial cannulation; assay type: in vivo, rat; conditions: hypertension generated by treatment with a glucocorticoid
Experimental: Hypertension was induced in normal male Sprague-Dawley rats by daily dosing with the glucocorticoid methylprednisolone (Medrol) for 8 days. Separate groups of rats received the vehicle (1% carboxymethylcellulose/0.01% Tween 20) by oral gavage and some of both the vehicle-treated and Medrol-treated rats also received daily doses of compound 1 as shown in Table D below. Mean blood pressure was measured by direct femoral arterial cannulation under fed conditions on day 7 and after a 6 hour fast on day 8. The data are mean and (SEM) mean blood pressure obtained by direct cannulation. N=9; * p<0.05 less than blood pressure in Medrol-treated rats.

[5] = target: T1, PPARγ (Homo sapiens, UniProt P37231); assay: commercial PPARγ binding assay (Invitrogen; PPAR-LBD/Fluormone PPAR Green complex); conditions: for Binding to PPARγ (Fluormone displacement signal): mean of three experiments
T1 construct: purchased Invitrogen Corporation, Carlsbad, Calif
T1 sequence (P37231 238-503 limits assumed): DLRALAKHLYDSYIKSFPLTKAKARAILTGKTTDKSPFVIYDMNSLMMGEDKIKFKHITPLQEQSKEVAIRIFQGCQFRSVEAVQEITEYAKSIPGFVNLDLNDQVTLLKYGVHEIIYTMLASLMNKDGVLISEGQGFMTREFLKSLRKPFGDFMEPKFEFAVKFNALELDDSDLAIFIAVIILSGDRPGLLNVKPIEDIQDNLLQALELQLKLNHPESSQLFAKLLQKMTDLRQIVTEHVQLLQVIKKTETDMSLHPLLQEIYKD
Experimental: The ability of several exemplary compounds of the present invention, shown in Table A, to bind to PPARγ was measured using a commercial binding assay (Invitrogen Corporation, Carlsbad, Calif.) that measures the test compounds ability to bind with PPAR-LBD/Fluormone PPAR Green complex. These assays were performed on three occasions with each assay using four separate wells (quadruplicate) at each concentration of tested compound. The data are mean and SEM of the values obtained from the three experiments. […] Compounds were added at the concentrations shown, which range from 0.1-100 micromolar.

[6] = day 1 of treatment, rosiglitazone 20 mg/kg, compound 1 40 mg/kg
[7] = day 2 of treatment, rosiglitazone 20 mg/kg, compound 1 40 mg/kg
[8] = day 3 of treatment, rosiglitazone 20 mg/kg, compound 1 40 mg/kg
[9] = day 4 of treatment, rosiglitazone 20 mg/kg, compound 1 40 mg/kg
[10] = day 5 of treatment, rosiglitazone 20 mg/kg, compound 1 40 mg/kg
[11] = day 6 of treatment, rosiglitazone 20 mg/kg, compound 1 40 mg/kg
[12] = day 7 of treatment, rosiglitazone 20 mg/kg, compound 1 40 mg/kg
[13] = day 8 of treatment, rosiglitazone 20 mg/kg, compound 1 40 mg/kg
[14] = day 9 of treatment, rosiglitazone 20 mg/kg, compound 1 40 mg/kg
[15] = day 10 of treatment, rosiglitazone 20 mg/kg, compound 1 40 mg/kg
[16] = day 11 of treatment, rosiglitazone 20 mg/kg, compound 1 40 mg/kg
[17] = day 12 of treatment, rosiglitazone 20 mg/kg, compound 1 40 mg/kg
[18] = day 13 of treatment, rosiglitazone 20 mg/kg, compound 1 40 mg/kg
[19] = day 14 of treatment, rosiglitazone 20 mg/kg, compound 1 40 mg/kg
[20] = day 15 of treatment, rosiglitazone 20 mg/kg, compound 1 40 mg/kg
[21] = day 16 of treatment, rosiglitazone 20 mg/kg, compound 1 40 mg/kg
[22] = day 17 of treatment, rosiglitazone 20 mg/kg, compound 1 40 mg/kg
[23] = day −1, before start of treatment
[24] = day −2, before start of treatment
[25] = day −3, before start of treatment
[26] = day −4, before start of treatment

In the case of `CCc1ccc(C(=O)COc2ccc(CC3SC(=O)NC3=O)cc2)nc1` (centres unmarked) [Compound 1], the Adiponectin [1] is reported as 36*, the FFA [1] is reported as 0.70* and the “Diastolic blood pressure measured by telemetry, Mean” value (from here on “Diastolic blood pressure measured”) [2, 6] is reported as 119. For the same molecule, the Heart rate measured by telemetry, Mean [2, 6] was 420 bpm, the “Systolic blood pressure measured by telemetry, Mean” value (“Systolic blood pressure measured” below) [2, 6] was 167 and the “Diastolic blood pressure measured” value [2, 7] was 117. For the same molecule, the Heart rate measured by telemetry, Mean [2, 7] was 414 bpm, the “Systolic blood pressure measured” value [2, 7] was 167 and the “Diastolic blood pressure measured” value [2, 8] was 120. For the same molecule, the Heart rate measured by telemetry, Mean [2, 8] was 406 bpm, the “Systolic blood pressure measured” value [2, 8] was 171 and the “Diastolic blood pressure measured” value [2, 9] was 119. For the same molecule, the Heart rate measured by telemetry, Mean [2, 9] was 405 bpm, the “Systolic blood pressure measured” value [2, 9] was 170 and the “Diastolic blood pressure measured” value [2, 10] was 122. For the same molecule, the Heart rate measured by telemetry, Mean [2, 10] was 400 bpm, the “Systolic blood pressure measured” value [2, 10] was 173 and the “Diastolic blood pressure measured” value [2, 11] was 121. For the same molecule, the Heart rate measured by telemetry, Mean [2, 11] was 395 bpm, the “Systolic blood pressure measured” value [2, 11] was 173 and the “Diastolic blood pressure measured” value [2, 12] was 125. The Heart rate measured by telemetry, Mean [2, 12] was 389 bpm, the “Systolic blood pressure measured” value [2, 12] was 176 and the “Diastolic blood pressure measured” value [2, 13] was 128. The Heart rate measured by telemetry, Mean [2, 13] was 394 bpm, the “Systolic blood pressure measured” value [2, 13] was 180 and the “Diastolic blood pressure measured” value [2, 14] was 129. For the same molecule, the Heart rate measured by telemetry, Mean [2, 14] was 388 bpm, the “Systolic blood pressure measured” value [2, 14] was 182 and the “Diastolic blood pressure measured” value [2, 15] was 132. For the same molecule, the Heart rate measured by telemetry, Mean [2, 15] was 389 bpm, the “Systolic blood pressure measured” value [2, 15] was 185 and the “Diastolic blood pressure measured” value [2, 16] was 132. The Heart rate measured by telemetry, Mean [2, 16] was 389 bpm, the “Systolic blood pressure measured” value [2, 16] was 184 and the “Diastolic blood pressure measured” value [2, 17] was 132. For the same molecule, the Heart rate measured by telemetry, Mean [2, 17] was 391 bpm, the “Systolic blood pressure measured” value [2, 17] was 187 and the “Diastolic blood pressure measured” value [2, 18] was 135. For the same molecule, the Heart rate measured by telemetry, Mean [2, 18] was 388 bpm, the “Systolic blood pressure measured” value [2, 18] was 189 and the “Diastolic blood pressure measured” value [2, 19] was 135. For the same molecule, the Heart rate measured by telemetry, Mean [2, 19] was 385 bpm, the “Systolic blood pressure measured” value [2, 19] was 192 and the “Diastolic blood pressure measured” value [2, 20] was 137. For the same molecule, the Heart rate measured by telemetry, Mean [2, 20] was 390 bpm, the “Systolic blood pressure measured” value [2, 20] was 193 and the “Diastolic blood pressure measured” value [2, 21] was 138. For the same molecule, the Heart rate measured by telemetry, Mean [2, 21] was 389 bpm, the “Systolic blood pressure measured” value [2, 21] was 197 and the “Diastolic blood pressure measured” value [2, 22] was 141. The Heart rate measured by telemetry, Mean [2, 22] was 388 bpm, the “Systolic blood pressure measured” value [2, 22] was 195 and the “Diastolic blood pressure measured” value [2, 23] was 125. For the same molecule, the Heart rate measured by telemetry, Mean [2, 23] was 393 bpm, the “Systolic blood pressure measured” value [2, 23] was 173 and the “Diastolic blood pressure measured” value [2, 24] was 127. For the same molecule, the Heart rate measured by telemetry, Mean [2, 24] was 398 bpm, the “Systolic blood pressure measured” value [2, 24] was 175 and the “Diastolic blood pressure measured” value [2, 25] was 123. For the same molecule, the Heart rate measured by telemetry, Mean [2, 25] was 400 bpm, the “Systolic blood pressure measured” value [2, 25] was 170 and the “Diastolic blood pressure measured” value [2, 26] was 124. For the same molecule, the Heart rate measured by telemetry, Mean [2, 26] was 406 bpm, the “Systolic blood pressure measured” value [2, 26] was 171 and the “effect on heart rate (in words)” value ([2]; telemetry, Tables F-H) was “reducing heart rate”. The “reduction of blood pressure compared with rosiglitazone (in words)” value ([2]; telemetry, Tables F-H) was “more effective in reducing blood pressure”, the “Mean blood pressure, Fasted” value ([3]; 6 hour fast, day 8, oral gavage daily, Compound 1 40 mg/kg/day, HCTZ 5 mg/kg/day) was 151 and the “antihypertensive action in combination with HCTZ (in words)” value ([3]; FIG. 2 and Table C) was “additive”. The “Mean blood pressure, Fed” value ([3]; fed, day 7, oral gavage daily, Compound 1 40 mg/kg/day, HCTZ 5 mg/kg/day) was 167, the “blood pressure lowering (in words)” value ([3]; hypertensive Dahl salt-sensitive rats) was “significantly lower blood pressure” and the “blood pressure lowering (in words)” value [4] was “significantly lowered blood pressure”. The “Binding to PPARγ (Fluormone displacement signal)” value ([5]; 1 μM compound) was 223, the “Binding to PPARγ (Fluormone displacement signal)” value ([5]; 3 μM compound) was 228 and the “Binding to PPARγ (Fluormone displacement signal)” value ([5]; 10 μM compound) was 207. For the same molecule, the “Binding to PPARγ (Fluormone displacement signal)” value ([5]; 50 μM compound) was 174, the “Binding to PPARγ (Fluormone displacement signal)” value ([5]; 100 μM compound) was 170 and the “Binding to PPARγ (Fluormone displacement signal)” value ([5]; .1 μM compound) was 227. For the same molecule, the “Binding to PPARγ (Fluormone displacement signal)” value ([5]; .3 μM compound) was 232 and the “binding to PPARγ (in words)” value ([5]; FIG. 1 and Table B) was “particularly poor binders”.
